Patent US20230085307A1, “PYRIDAZINONE COMPOUND AND HERBICIDE” (NISSAN CHEMICAL CORPORATION, priority 2019, published 2023)

Tests used:
[1] = tested on: green foxtail; experiment: Test Example 4: herbicidal effect by soil treatment (Table 19, symbol G); assay type: in vivo, green foxtail (Setaria viridis); conditions: amount of applied herbicide 320 g/ha
How it was run: (§1)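 Applied as a water-diluted emulsion, the compound was sprayed onto soil covering newly sown seeds. Evaluation came three weeks after application, in a greenhouse held at 25° C. to 30° C.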

[2] = tested on: chickweed; experiment: Test Example 4: herbicidal effect by soil treatment (Table 19, symbol P); assay type: in vivo, common chickweed (Stellaria media); conditions: amount of applied herbicide 320 g/ha
How it was run: as §1

[3] = tested on: southern crabgrass; experiment: Test Example 4: herbicidal effect by soil treatment (Table 19, symbol F); assay type: in vivo, southern crabgrass (Digitaria ciliaris); conditions: amount of applied herbicide 320 g/ha
How it was run: as §1

[4] = tested on: redroot pigweed; experiment: Test Example 5: herbicidal effect by foliage application, plastic box (Table 20, symbol N); assay type: in vivo, redroot pigweed (Amaranthus retroflexus); conditions: 320 g/ha
How it was run: (§2)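 Sow seeds spot-wise in sterilized diluvial soil; cover with ~1.5 cm soil. Grow 14 days in greenhouse, 25° C. to 30° C. Spray foliage with emulsion diluted to predetermined amount. Rate effect after 3 weeks.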

[5] = tested on: lambsquarters; experiment: Test Example 4: herbicidal effect by soil treatment (Table 19, symbol O); assay type: in vivo, lambsquarters (Chenopodium album); conditions: amount of applied herbicide 320 g/ha
How it was run: as §1

[6] = tested on: Italian ryegrass; experiment: Test Example 5: herbicidal effect by foliage application, plastic box (Table 20, symbol K); assay type: in vivo, Italian ryegrass (Lolium multiflorum); conditions: 320 g/ha
How it was run: as §2

[7] = tested on: velvetleaf; experiment: Test Example 4: herbicidal effect by soil treatment (Table 19, symbol M); assay type: in vivo, velvetleaf (Abutilon theophrasti); conditions: amount of applied herbicide 320 g/ha
How it was run: as §1

[8] = tested on: blackgrass; experiment: Test Example 5: herbicidal effect by foliage application, plastic box (Table 20, symbol J); assay type: in vivo, blackgrass (Alopecurus myosuroides); conditions: 320 g/ha
How it was run: as §2

[9] = tested on: wild oat; experiment: Test Example 5: herbicidal effect by foliage application, plastic box (Table 20, symbol I); assay type: in vivo, wild oat (Avena fatua); conditions: 320 g/ha
How it was run: as §2

[10] = tested on: Chinese sprangletop; experiment: Test Example 3: herbicidal effect by foliage application, Wagner pot (Table 18, symbol D); assay type: in vivo, chinese sprangletop (Leptochloa chinensis); conditions: 320 g/ha
How it was run: (§3)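 Plants were sown in alluvial soil held under 0.1–0.5 cm standing water and grown 14 days in a greenhouse at 25–30 °C. An emulsifiable formulation, water-diluted to the set dose, was then sprayed onto the foliage, and effects were scored three weeks later using previously defined criteria.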

[11] = tested on: windgrass; experiment: Test Example 5: herbicidal effect by foliage application, plastic box (Table 20, symbol L); assay type: in vivo, windgrass (Apera spica-venti); conditions: 320 g/ha
How it was run: as §2

[12] = tested on: wild oat; experiment: Test Example 4: herbicidal effect by soil treatment (Table 19, symbol I); assay type: in vivo, wild oat (Avena fatua); conditions: amount of applied herbicide 320 g/ha
How it was run: as §1

[13] = tested on: southern crabgrass; experiment: Test Example 5: herbicidal effect by foliage application, plastic box (Table 20, symbol F); assay type: in vivo, southern crabgrass (Digitaria ciliaris); conditions: 320 g/ha
How it was run: as §2

[14] = tested on: barnyard grass; experiment: Test Example 4: herbicidal effect by soil treatment (Table 19, symbol H); assay type: in vivo, barnyard grass (Echinochloa crus-galli); conditions: amount of applied herbicide 320 g/ha
How it was run: as §1

[15] = tested on: persian speedwell; experiment: Test Example 5: herbicidal effect by foliage application, plastic box (Table 20, symbol R); assay type: in vivo, Persian speedwell (Veronica persica); conditions: 320 g/ha
How it was run: as §2

[16] = tested on: redroot pigweed; experiment: Test Example 4: herbicidal effect by soil treatment (Table 19, symbol N); assay type: in vivo, redroot pigweed (Amaranthus retroflexus); conditions: amount of applied herbicide 320 g/ha
How it was run: as §1

[17] = tested on: blackgrass; experiment: Test Example 4: herbicidal effect by soil treatment (Table 19, symbol J); assay type: in vivo, blackgrass (Alopecurus myosuroides); conditions: amount of applied herbicide 320 g/ha
How it was run: as §1

[18] = tested on: green foxtail; experiment: Test Example 5: herbicidal effect by foliage application, plastic box (Table 20, symbol G); assay type: in vivo, green foxtail (Setaria viridis); conditions: 320 g/ha
How it was run: as §2

[19] = tested on: barnyard grass; experiment: Test Example 5: herbicidal effect by foliage application, plastic box (Table 20, symbol H); assay type: in vivo, barnyard grass (Echinochloa crus-galli); conditions: 320 g/ha
How it was run: as §2

[20] = tested on: lambsquarters; experiment: Test Example 5: herbicidal effect by foliage application, plastic box (Table 20, symbol O); assay type: in vivo, lambsquarters (Chenopodium album); conditions: 320 g/ha
How it was run: as §2

[21] = tested on: rice flat sedge; experiment: Test Example 3: herbicidal effect by foliage application, Wagner pot (Table 18, symbol E); assay type: in vivo, rice flat sedge (Cyperus iria); conditions: 320 g/ha
How it was run: as §3

[22] = tested on: chickweed; experiment: Test Example 5: herbicidal effect by foliage application, plastic box (Table 20, symbol P); assay type: in vivo, common chickweed (Stellaria media); conditions: 320 g/ha
How it was run: as §2

[23] = tested on: barnyard grass; experiment: Test Example 3: herbicidal effect by foliage application, Wagner pot (Table 18, symbol H); assay type: in vivo, barnyard grass (Echinochloa crus-galli); conditions: 320 g/ha
How it was run: as §3

[24] = tested on: windgrass; experiment: Test Example 4: herbicidal effect by soil treatment (Table 19, symbol L); assay type: in vivo, windgrass (Apera spica-venti); conditions: amount of applied herbicide 320 g/ha
How it was run: as §1

[25] = tested on: velvetleaf; experiment: Test Example 5: herbicidal effect by foliage application, plastic box (Table 20, symbol M); assay type: in vivo, velvetleaf (Abutilon theophrasti); conditions: 320 g/ha
How it was run: as §2

[26] = tested on: Italian ryegrass; experiment: Test Example 4: herbicidal effect by soil treatment (Table 19, symbol K); assay type: in vivo, Italian ryegrass (Lolium multiflorum); conditions: amount of applied herbicide 320 g/ha
Description: [Test Example 4] Herbicidal Effect Test by Soil Treatment
Sterilized diluvial soil was placed in a plastic box having a length of 21 cm, a width of 13 cm, and a depth of 7 cm. The seeds of each of southern crabgrass, green foxtail, barnyard grass, wild oat, blackgrass, Italian ryegrass, windgrass, velvetleaf, redroot pigweed, lambsquarters, chickweed, false cleavers, persian speedwell, corn, soybean, rice, wheat, beet, and rapeseed were sowed in a spot-like manner and covered with the soil having a thickness of about 1.5 cm. Subsequently, the emulsion agent of the compound of the present invention prepared according to Formulation Example 2 was diluted with water so as to achieve a predetermined herbicide amount, and the diluted emulsion agent was uniformly applied to the surface of the soil with a small-sized spray. The plastic box was placed in a greenhouse at 25° C. to 30° C. for growth of the plants. Three weeks after the herbicide application, the effect of the herbicide on each plant was evaluated according to the criteria of Test Example 1.

[27] = foliage application after 14-day growth, evaluated three weeks after application
[28] = foliage application, three weeks after application

Compound: Cc1nn(C)c(=O)c(-c2c(-c3ccccc3F)sc3c(Cl)cccc23)c1O [4-058]
- Herbicidal effect by soil treatment, G: green foxtail [1]: 0 (Herbicidal rate of 5% or less (almost no effect))
- Herbicidal effect by soil treatment, P: chickweed [2]: 5 (Herbicidal rate of 90% or more (almost completely withered))
- Herbicidal effect by soil treatment, F: southern crabgrass [3]: 0 (Herbicidal rate of 5% or less (almost no effect))
- herbicidal effect on N: redroot pigweed (evaluation grade 0-5) [4, 27]: 3 (Herbicidal rate of 40% or more and less than 70%)
- Herbicidal effect by soil treatment, O: lambsquarters [5]: 0 (Herbicidal rate of 5% or less (almost no effect))
- herbicidal effect on K: Italian ryegrass (evaluation grade 0-5) [6, 27]: 3 (Herbicidal rate of 40% or more and less than 70%)
- Herbicidal effect by soil treatment, M: velvetleaf [7]: 0 (Herbicidal rate of 5% or less (almost no effect))
- herbicidal effect on J: blackgrass (evaluation grade 0-5) [8, 27]: 0 (Herbicidal rate of 5% or less (almost no effect))
- herbicidal effect on I: wild oat (evaluation grade 0-5) [9, 27]: 0 (Herbicidal rate of 5% or less (almost no effect))
- herbicidal effect on Chinese sprangletop (D) [10]: 3 (Herbicidal rate of 40% or more and less than 70%)
- herbicidal effect on L: windgrass (evaluation grade 0-5) [11, 27]: 4 (Herbicidal rate of 70% or more and less than 90%)
- Herbicidal effect by soil treatment, I: wild oat [12]: 0 (Herbicidal rate of 5% or less (almost no effect))
- herbicidal effect on F: southern crabgrass (evaluation grade 0-5) [13, 27]: 2 (Herbicidal rate of 20% or more and less than 40%)
- Herbicidal effect by soil treatment, H: barnyard grass [14]: 0 (Herbicidal rate of 5% or less (almost no effect))
- herbicidal effect on R: persian speedwell (evaluation grade 0-5) [15, 27]: 5 (Herbicidal rate of 90% or more (almost completely withered))
- Herbicidal effect by soil treatment, N: redroot pigweed [16]: 0 (Herbicidal rate of 5% or less (almost no effect))
- Herbicidal effect by soil treatment, J: blackgrass [17]: 0 (Herbicidal rate of 5% or less (almost no effect))
- herbicidal effect on G: green foxtail (evaluation grade 0-5) [18, 27]: 0 (Herbicidal rate of 5% or less (almost no effect))
- herbicidal effect on H: barnyard grass (evaluation grade 0-5) [19, 27]: 0 (Herbicidal rate of 5% or less (almost no effect))
- herbicidal effect on O: lambsquarters (evaluation grade 0-5) [20, 27]: 2 (Herbicidal rate of 20% or more and less than 40%)
- herbicidal effect on rice flat sedge (E) [21]: 3 (Herbicidal rate of 40% or more and less than 70%)
- herbicidal effect on P: chickweed (evaluation grade 0-5) [22, 27]: 5 (Herbicidal rate of 90% or more (almost completely withered))
- herbicidal effect on barnyard grass (H) [23]: 4 (Herbicidal rate of 70% or more and less than 90%)
- Herbicidal effect by soil treatment, L: windgrass [24]: 0 (Herbicidal rate of 5% or less (almost no effect))
- herbicidal effect on M: velvetleaf (evaluation grade 0-5) [25, 27]: 1 (Herbicidal rate of 5% or more and less than 20%)
- Herbicidal effect by soil treatment, K: Italian ryegrass [26]: 2 (Herbicidal rate of 20% or more and less than 40%)

Compound: COc1ccccc1-c1sc2cc(OCCS(C)(=O)=O)ccc2c1-c1c(O)c(C)nn(C)c1=O [3-127]
- G: green foxtail, herbicidal effect grade [1]: 0 (Herbicidal rate of 5% or less (almost no effect))
- P: chickweed, herbicidal effect grade [2]: 1 (Herbicidal rate of 5% or more and less than 20%)
- F: southern crabgrass, herbicidal effect grade [3]: 0 (Herbicidal rate of 5% or less (almost no effect))
- N: redroot pigweed, herbicidal effect grade [4, 28]: 5 (Herbicidal rate of 90% or more (almost completely withered))
- O: lambsquarters, herbicidal effect grade [5]: 0 (Herbicidal rate of 5% or less (almost no effect))
- K: Italian ryegrass, herbicidal effect grade [6, 28]: 4 (Herbicidal rate of 70% or more and less than 90%)
- M: velvetleaf, herbicidal effect grade [7]: 0 (Herbicidal rate of 5% or less (almost no effect))
- J: blackgrass, herbicidal effect grade [8, 28]: 5 (Herbicidal rate of 90% or more (almost completely withered))
- I: wild oat, herbicidal effect grade [9, 28]: 4 (Herbicidal rate of 70% or more and less than 90%)
- herbicidal effect on Chinese sprangletop (D) [10]: 3 (Herbicidal rate of 40% or more and less than 70%)
- L: windgrass, herbicidal effect grade [11, 28]: 5 (Herbicidal rate of 90% or more (almost completely withered))
- I: wild oat, herbicidal effect grade [12]: 0 (Herbicidal rate of 5% or less (almost no effect))
- F: southern crabgrass, herbicidal effect grade [13, 28]: 5 (Herbicidal rate of 90% or more (almost completely withered))
- H: barnyard grass, herbicidal effect grade [14]: 0 (Herbicidal rate of 5% or less (almost no effect))
- R: persian speedwell, herbicidal effect grade [15, 28]: 5 (Herbicidal rate of 90% or more (almost completely withered))
- N: redroot pigweed, herbicidal effect grade [16]: 0 (Herbicidal rate of 5% or less (almost no effect))
- J: blackgrass, herbicidal effect grade [17]: 3 (Herbicidal rate of 40% or more and less than 70%)
- G: green foxtail, herbicidal effect grade [18, 28]: 5 (Herbicidal rate of 90% or more (almost completely withered))
- H: barnyard grass, herbicidal effect grade [19, 28]: 3 (Herbicidal rate of 40% or more and less than 70%)
- O: lambsquarters, herbicidal effect grade [20, 28]: 4 (Herbicidal rate of 70% or more and less than 90%)
- herbicidal effect on rice flat sedge (E) [21]: 5 (Herbicidal rate of 90% or more (almost completely withered))
- P: chickweed, herbicidal effect grade [22, 28]: 5 (Herbicidal rate of 90% or more (almost completely withered))
- herbicidal effect on barnyard grass (H) [23]: 4 (Herbicidal rate of 70% or more and less than 90%)
- L: windgrass, herbicidal effect grade [24]: 5 (Herbicidal rate of 90% or more (almost completely withered))
- M: velvetleaf, herbicidal effect grade [25, 28]: 5 (Herbicidal rate of 90% or more (almost completely withered))
- K: Italian ryegrass, herbicidal effect grade [26]: 4 (Herbicidal rate of 70% or more and less than 90%)
